Data set [1] concerns the target T1, 5-hydroxytryptamine receptor 2C (Homo sapiens, UniProt P28335).
T1 sequence (P28335 whole entry): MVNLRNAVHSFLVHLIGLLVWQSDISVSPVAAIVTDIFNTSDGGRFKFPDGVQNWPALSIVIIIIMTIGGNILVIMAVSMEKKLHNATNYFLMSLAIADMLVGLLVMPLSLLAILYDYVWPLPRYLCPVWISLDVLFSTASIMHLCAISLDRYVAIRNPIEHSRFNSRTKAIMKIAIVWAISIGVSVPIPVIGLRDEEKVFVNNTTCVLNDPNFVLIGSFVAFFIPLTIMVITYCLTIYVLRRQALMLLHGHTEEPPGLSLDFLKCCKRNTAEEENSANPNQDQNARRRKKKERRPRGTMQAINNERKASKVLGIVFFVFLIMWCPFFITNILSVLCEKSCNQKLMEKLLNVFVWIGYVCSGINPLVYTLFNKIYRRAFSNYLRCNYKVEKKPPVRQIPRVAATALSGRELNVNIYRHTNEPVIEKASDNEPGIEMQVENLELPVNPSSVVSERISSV
Description: Inhibition of 5HT2C (unknown origin).

In data set [2] the target is Sigma intracellular receptor 2 (Homo sapiens, UniProt Q5BJF2). Briefly: Inhibition of sigma receptor 2 (unknown origin).
The target of data set [3] is Sigma non-opioid intracellular receptor 1 (Homo sapiens, UniProt Q99720). Briefly: Inhibition of sigma receptor 1 (unknown origin).
Data set [4] has as its target Adenosine receptor A2a (Homo sapiens, UniProt P29274). Briefly: Displacement of [3H]2-[p-(2-carboxyethyl)phenylethylamino]-5-N-ethylcarboxamidoadenosine from human A2A adenosine receptor expressed in HEK293 cell membranes at 10 uM after 60 mins by scintillation proximity assay relative to adenosine 5-N-ethyluronamide. (In general: In a radioligand displacement assay an active substance lowers the binding of a labelled ligand.)

Data set [5] concerns the target T2, Adenosine receptor A3 (Homo sapiens) (UniProt P0DMS8).
T2 sequence (whole entry): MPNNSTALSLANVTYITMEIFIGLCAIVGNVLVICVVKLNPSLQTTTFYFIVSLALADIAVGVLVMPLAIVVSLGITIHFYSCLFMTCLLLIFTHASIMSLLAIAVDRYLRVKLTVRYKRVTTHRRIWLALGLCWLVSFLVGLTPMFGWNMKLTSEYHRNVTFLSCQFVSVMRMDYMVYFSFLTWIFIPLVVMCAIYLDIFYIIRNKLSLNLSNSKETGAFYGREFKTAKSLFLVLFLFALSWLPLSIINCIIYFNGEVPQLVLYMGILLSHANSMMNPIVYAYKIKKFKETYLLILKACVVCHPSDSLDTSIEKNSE
Description: Displacement of [125I]N6-(4-amino-3-iodobenzyl)adenosine-5-N-methyluronamide from human A3A adenosine receptor expressed in CHO cell membranes at 10 uM after 60 mins by scintillation proximity assay relative to adenosine 5-N-ethyluronamide.

The target in data set [6] is T3, Adenosine receptor A3 (Mus musculus) (UniProt Q61618).
T3 sequence (whole entry): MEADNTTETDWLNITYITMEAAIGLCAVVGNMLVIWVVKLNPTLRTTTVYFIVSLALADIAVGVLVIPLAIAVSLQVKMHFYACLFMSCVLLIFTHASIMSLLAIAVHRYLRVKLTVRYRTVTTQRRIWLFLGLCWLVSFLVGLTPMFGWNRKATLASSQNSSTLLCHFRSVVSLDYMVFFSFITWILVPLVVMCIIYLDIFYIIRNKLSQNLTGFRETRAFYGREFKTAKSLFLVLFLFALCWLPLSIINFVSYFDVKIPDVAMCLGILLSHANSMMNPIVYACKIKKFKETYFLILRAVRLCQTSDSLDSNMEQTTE
Description: Displacement of [125I]N6-(4-amino-3-iodobenzyl)adenosine-5-N-methyluronamide from mouse A3A adenosine receptor expressed in CHO cell membranes at 10 uM after 60 mins by scintillation proximity assay relative to adenosine 5-N-ethyluronamide.

Data set [7] concerns the target T3, Adenosine receptor A3 (Mus musculus). Briefly: Agonist activity at mouse A3AR adenosine receptor at 10 uM after 60 mins by [35S]GTPgammaS binding assay relative to (2S,3S,4R,5R)-5-(6-amino-9H-purin-9-yl)-N-ethyl-3,4-dihydroxytetrahydrofuran-2-carboxamide. Format: functional.
The target in data set [8] is T4, Adenosine receptor A1 (Homo sapiens, UniProt P30542).
T4 sequence (P30542 whole entry): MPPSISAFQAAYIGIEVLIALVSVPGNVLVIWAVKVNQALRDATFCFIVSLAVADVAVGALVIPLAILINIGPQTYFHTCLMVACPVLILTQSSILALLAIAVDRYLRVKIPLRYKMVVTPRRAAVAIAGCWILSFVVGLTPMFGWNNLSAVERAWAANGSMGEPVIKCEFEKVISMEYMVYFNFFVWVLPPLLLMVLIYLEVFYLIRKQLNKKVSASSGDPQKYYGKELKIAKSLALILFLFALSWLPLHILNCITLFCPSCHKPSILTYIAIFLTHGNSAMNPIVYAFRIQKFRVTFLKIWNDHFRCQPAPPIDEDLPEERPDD
Description: Agonist activity at human A1A adenosine receptor expressed in HEK cells assessed as inhibition of forskolin-stimulated cAMP production after 60 mins. The class given is functional, cell-based. Background: Changes in cAMP serve as a functional read-out for many G protein-coupled receptors.

The species named for data set [9] is Mus musculus. Briefly: Selectivity index, ratio of Ki for mouse A3A adenosine receptor to Ki for mouse A1A adenosine receptor expressed in CHO cell membranes after 60 mins by scintillation proximity assay.
The target in data set [10] is T4, Adenosine receptor A1. Description: Agonist activity at human A1A adenosine receptor expressed in CHOKI cells assessed as induction of beta-arrestin2 recruitment after 60 mins. Format: cell-based. (In general: Recruitment of arrestin is a read-out of receptor activation apart from second messengers.)
Data set [11] deals with Mus musculus. Description: Induction of hypothermia in C57BL/6J mouse assessed as body temperature at 10 mg/kg, ip measured at 60 mins post dose (reference value: 36.3 +/- 0.8 degC). The class given is functional.
The subject of data set [12] is Mus musculus. Briefly: Induction of hypothermia in C57BL/6J mouse assessed as activity counts at 10 mg/kg, ip measured at 60 mins post dose (reference value: 15.5 +/- 5.5). The class given is functional.
Data set [13] in a line: Fraction unbound in human plasma at 10 uM. The class given is ADME, cell-free.
Data set [14] is described as follows: Fraction unbound in mouse plasma at 10 uM. The class given is ADME, cell-free.
Data set [15] can be described thus: Fraction unbound in rat plasma at 10 uM. The class given is ADME, cell-free.
Data set [16] has as its target T4, Adenosine receptor A1. Description: Agonist activity at human A1A adenosine receptor expressed in HEK cell membranes incubated for 60 mins by [35S]GTPgammaS binding assay. Format: functional.
Data set [17] concerns the target T5, Adenosine receptor A1 (Homo sapiens) (UniProt P30542).
T5 sequence (whole entry): T4 sequence (P30542 whole entry)
Description: Displacement of [3H]N6-R-phenylisopropyladenosine from human A1A adenosine receptor expressed in CHO cell membranes at 10 uM after 60 mins by scintillation proximity assay relative to adenosine 5-N-ethyluronamide.

Data set [18] concerns the target 5-hydroxytryptamine receptor 5A (Homo sapiens, UniProt P47898). Description: Inhibition of 5HT5A (unknown origin).
Data set [19] concerns the target Histamine H2 receptor (Homo sapiens, UniProt P25021). Description: Inhibition of histamine H2 receptor (unknown origin).
For data set [20], the target named is Histamine H1 receptor (Homo sapiens, UniProt P35367). Description: Inhibition of histamine H1 receptor (unknown origin).
Sequence of Histamine H1 receptor (P35367 whole entry): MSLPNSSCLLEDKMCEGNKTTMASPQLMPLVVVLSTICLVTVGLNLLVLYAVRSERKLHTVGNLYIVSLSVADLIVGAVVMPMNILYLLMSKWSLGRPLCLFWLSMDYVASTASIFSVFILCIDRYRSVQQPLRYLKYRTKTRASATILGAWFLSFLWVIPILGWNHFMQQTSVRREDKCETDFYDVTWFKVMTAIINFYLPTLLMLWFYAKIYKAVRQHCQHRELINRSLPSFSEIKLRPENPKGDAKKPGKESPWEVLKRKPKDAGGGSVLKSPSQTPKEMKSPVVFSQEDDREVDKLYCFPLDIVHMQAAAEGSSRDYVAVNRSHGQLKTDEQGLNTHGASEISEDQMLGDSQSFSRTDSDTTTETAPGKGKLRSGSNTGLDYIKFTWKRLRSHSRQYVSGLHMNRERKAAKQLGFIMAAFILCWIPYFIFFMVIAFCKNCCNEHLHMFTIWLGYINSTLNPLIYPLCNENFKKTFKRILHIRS

Sequence of Sigma intracellular receptor 2 (Q5BJF2 whole entry): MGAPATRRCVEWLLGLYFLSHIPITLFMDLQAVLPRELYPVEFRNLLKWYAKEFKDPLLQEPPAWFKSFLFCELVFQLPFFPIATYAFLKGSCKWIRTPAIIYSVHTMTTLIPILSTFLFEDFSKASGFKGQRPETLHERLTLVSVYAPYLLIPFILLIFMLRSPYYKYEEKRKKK
Sequence of Adenosine receptor A2a (P29274 whole entry): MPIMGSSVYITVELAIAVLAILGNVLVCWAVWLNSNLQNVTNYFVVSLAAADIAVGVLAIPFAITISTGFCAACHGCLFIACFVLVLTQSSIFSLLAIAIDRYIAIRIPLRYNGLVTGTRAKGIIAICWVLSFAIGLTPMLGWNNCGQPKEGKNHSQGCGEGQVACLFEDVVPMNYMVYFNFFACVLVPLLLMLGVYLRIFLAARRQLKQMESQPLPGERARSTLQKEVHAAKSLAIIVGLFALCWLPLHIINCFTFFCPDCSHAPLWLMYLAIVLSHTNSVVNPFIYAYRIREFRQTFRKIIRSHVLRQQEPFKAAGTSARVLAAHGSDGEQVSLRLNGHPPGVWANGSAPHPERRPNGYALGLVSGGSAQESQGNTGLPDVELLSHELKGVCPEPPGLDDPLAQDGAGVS
Sequence of Sigma non-opioid intracellular receptor 1 (Q99720 whole entry): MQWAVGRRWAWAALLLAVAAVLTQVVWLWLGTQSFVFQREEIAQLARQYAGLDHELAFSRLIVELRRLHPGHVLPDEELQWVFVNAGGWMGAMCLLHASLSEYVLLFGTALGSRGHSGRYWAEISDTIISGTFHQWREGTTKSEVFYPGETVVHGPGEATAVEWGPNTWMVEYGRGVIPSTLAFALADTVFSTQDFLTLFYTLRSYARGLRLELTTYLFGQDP
Sequence of Histamine H2 receptor (P25021 whole entry): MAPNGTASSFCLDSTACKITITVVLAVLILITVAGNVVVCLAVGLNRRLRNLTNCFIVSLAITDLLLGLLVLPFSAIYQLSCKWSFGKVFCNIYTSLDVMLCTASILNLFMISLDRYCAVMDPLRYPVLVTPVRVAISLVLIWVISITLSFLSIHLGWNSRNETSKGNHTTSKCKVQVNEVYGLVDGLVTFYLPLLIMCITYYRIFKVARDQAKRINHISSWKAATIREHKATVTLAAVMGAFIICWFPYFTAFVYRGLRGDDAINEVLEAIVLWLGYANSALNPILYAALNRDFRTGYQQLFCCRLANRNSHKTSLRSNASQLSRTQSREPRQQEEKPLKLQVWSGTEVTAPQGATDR
Sequence of 5-hydroxytryptamine receptor 5A (P47898 whole entry): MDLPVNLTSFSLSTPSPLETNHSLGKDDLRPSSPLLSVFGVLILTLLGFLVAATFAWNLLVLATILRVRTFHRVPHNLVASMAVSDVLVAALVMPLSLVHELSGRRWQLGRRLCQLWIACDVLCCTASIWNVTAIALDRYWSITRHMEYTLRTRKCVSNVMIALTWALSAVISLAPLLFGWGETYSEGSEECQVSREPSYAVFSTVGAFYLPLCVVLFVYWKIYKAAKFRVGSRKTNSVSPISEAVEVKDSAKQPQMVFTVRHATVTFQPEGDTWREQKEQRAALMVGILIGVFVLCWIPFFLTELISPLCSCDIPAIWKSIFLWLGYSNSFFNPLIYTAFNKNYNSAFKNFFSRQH

The term Ki denotes a dissociation constant, usually derived from enzyme kinetics or from competition with a known ligand. A higher Ki goes with a looser hold on the target. Compound `CCOC(=O)[C@@]12C[C@@H]1[C@@H](n1cnc3c(NC(C4CC4)C4CC4)nc(Cl)nc31)[C@H](O)[C@@H]2O` showed an inhibition constant (Ki) in data set [1] of 54 nM.

For `O[C@@H]1[C@H](O)[C@@H]2C[C@@H]2[C@H]1n1cnc2c(NC(C3CCCC3)C3CCCC3)nc(Cl)nc21`, the Ki amounted to 2920 nM in [1], 2010 nM in [2] and 5090 nM in [3].

By inhibition is commonly meant the share of the control response that was lost under treatment. Low values mean a response near the control, high ones a response far below the control. For orientation: Emax means the size of the effect at its maximum, as opposed to the concentration needed. By IC50 is commonly meant the point on the concentration scale where inhibition reaches its midpoint. The EC50 is the concentration giving half of the maximal effect. On to `NC(=O)c1ncn([C@H]2[C@H](O)[C@H](O)[C@]3(CO)C[C@H]23)n1`, for which the inhibition in data set [4] turned out to be 11%; in data set [5], 41%; in data set [6], 47%. The compound also had a Ki in data set [2] of 2090 nM. In addition, the Emax in [7] was 31%. Moreover, the IC50 in [8] amounted to 87 nM. Moreover, in [9], the Ratio Ki came out at 400. The EC50 in data set [10] was 2460 nM; in data set [16], 758 nM. The T in data set [11] turned out to be 35.7 °C. Moreover, the Activity in [12] was 19.1. In addition, the Fu in data set [13], in [14] and in data set [15] was more than 80% throughout.

As to `CCOC(=O)[C@@]12C[C@@H]1[C@@H](n1cnc3c(NC(C4CC4)C4CC4)nc(Cl)nc31)[C@@H]1OC(C)(C)O[C@@H]12`, the values for the inhibition in [17], in data set [4] and in data set [5] were 49%, 15% and 41%, respectively. Further, the figures for the Ki in data set [18] and in [19] were 8690 nM and 6380 nM, respectively.

Take `Nc1ncnc2c1ncn2[C@@H]1O[C@H](C(=O)NC2CC2)[C@@H](O)[C@H]1O`: the Ki in data set [2] was 4350 nM; in [20] it was 7880 nM.

The record behind these values is ChEMBL document CHEMBL4368904 (J Med Chem, 2019).
